“And” between values parts separate entries of the source, which are not always exact repeats. Identical values can stand only once.
Columns and labels:
C57BL mice = assay: Intraperitoneal glucose tolerance test (IPGTT) after single SC injection; type: in vivo; conditions: for glucose reduction (IPGTT): single SC 100 or 300 nmol/kg; for glucose-lowering effect (IPGTT): single SC, P19 15 nmol/kg, P28 10 or 30 nmol/kg (FIG. 5 legend)
Protocol: The effect of the fusion proteins on glucose tolerance was determined in C57BL mice (Beijing Vital River Laboratory Animal Technology Co., Ltd.). Each group (6 mice per group) received a single subcutaneous injection of PBS vehicle control, dulaglutide (TRULICITY® brand) (Vetter Pharma-Fertigung GmbH & Co. […] Intraperitoneal glucose tolerance tests (IPGTT) were performed on Day 1, 7, 14, 21, up to 28 after 6 hours fasting with tail vein blood glucose measurements at 0, 15, 30, 60, and 120 minutes.

DIO mice = assay: 28-day study in DIO mice: body weight, blood glucose, food intake; type: in vivo; conditions: for weight loss: after 28 days
Protocol: To further characterize and understand the efficacy of the fusion proteins, body weight and metabolic parameters were measured throughout a 28-day study in DIO mice (Beijing Vital River Laboratory Animal Technology Co., Ltd.).
The effects of all fusion proteins on blood glucose reduction and food intake were determined in the DIO mice described above (FIG. 7A and FIG. 7B). All mice are bled after fasting for 6 hours to measure blood glucose twice weekly.

[1] = cited from earlier work

Molecule | glucose reduction (IPGTT) (C57BL mice; Day 1) | glucose reduction (IPGTT) (C57BL mice; Day 7 and 14) | glucose reduction (IPGTT) (C57BL mice; Day 21) | weight loss (DIO mice; 10 nmol/kg twice weekly) | weight loss (DIO mice; 30 nmol/kg twice weekly) [%] | glucose-lowering effect (IPGTT) (C57BL mice; Day 1) | glucose-lowering effect (IPGTT) (C57BL mice; Day 7) | decrease in body weight compared with dulaglutide (DIO mice; twice weekly) | half-life in mice [1]
dulaglutide [reference compound] | very strong glucose reduction | rapidly waned | completely lost effect | 10.9% and 11% | 16.6 |  |  |  | 
CC[C@H](C)[C@H](NC(=O)[C@H](CC(C)C)NC(=O)[C@H](Cc1c[nH]c2ccccc12)NC(=O)[C@H](CCC(N)=O)NC(=O)[C@@H](NC(=O)[C@H](Cc1ccccc1)NC(=O)[C@H](C)NC(=O)[C@H](CCCCNC(=O)COCCOCCNC(=O)COCCOCCNC(=O)CC[C@H](NC(=O)CCCCCCCCCCCCCCCCCCC(=O)O)C(=O)O)NC(=O)[C@H](CCC(N)=O)NC(=O)[C@H](C)NC(=O)[C@@H](NC(=O)[C@H](CCCCN)NC(=O)[C@H](CC(=O)O)NC(=O)[C@H](CC(C)C)NC(=O)C(C)(C)NC(=O)[C@@H](NC(=O)[C@H](CO)NC(=O)[C@H](Cc1ccc(O)cc1)NC(=O)[C@H](CC(=O)O)NC(=O)[C@H](CO)NC(=O)[C@@H](NC(=O)[C@H](Cc1ccccc1)NC(=O)[C@@H](NC(=O)CNC(=O)[C@H](CCC(=O)O)NC(=O)C(C)(C)NC(=O)[C@@H](N)Cc1ccc(O)cc1)[C@@H](C)O)[C@@H](C)O)[C@@H](C)CC)[C@@H](C)CC)C(C)C)C(=O)N[C@@H](C)C(=O)NCC(=O)NCC(=O)N1CCC[C@H]1C(=O)N[C@@H](CO)C(=O)N[C@@H](CO)C(=O)NCC(=O)N[C@@H](C)C(=O)N1CCC[C@H]1C(=O)N1CCC[C@H]1C(=O)N1CCC[C@H]1C(=O)N[C@@H](CO)C(N)=O [P19, Tirzepatide, reference compound] |  |  |  |  | 26 | showed glucose-lowering effects | lost all effects | more significant dose-dependent decrease in body weight | less than one day
